Values of other authors, collected in patent US20060178351A1, “Treatment of immune-mediated disorders with active vitamin D compounds alone or in combination with other therapeutic agents” (Novacea, Inc., priority 2003, published 2006).

Conditions: relative to an equal dose of calcitriol

C=C1/C(=C\C=C2/CCC[C@]3(C)C([C@H](C)CC#CC(C)(C)O)=CC[C@@H]23)C[C@@H](O)C[C@@H]1O [Ro23-7553]
Hypercalcemic effect compared to calcitriol: reduced hypercalcemic effect
